Laboratory results reported in US20100298394A1, “ANTIFUNGAL AGENTS AS NEUROPROTECTANTS” (THE JOHNS HOPKINS UNIVERSITY, priority 2007, published 2010).

How the values were obtained:
[1] = test system: rat mixed hippocampal cultures; assay: 3-NP neurotoxicity (neuroprotection) assay, MTT endpoint; type: cell-based; conditions: for Protection vs 3NP / % Protection vs. 3-NP: 10 μM agent, 60 minutes incubation, 3 mM 3-NP, compared to 0.1% DMSO vehicle control; for protection from oxidative damage elicited by 3-NP (FIG. 4): increasing concentrations, 1 h prior to 3 mM 3-NP for 18 h; for protection from oxidative damage elicited by 3-NP (positive controls, FIG. 2): 10 μM, 1 hour pretreatment, 3 mM 3-NP for 18 hours
Experimental: For example, a cell viability assay can be utilized to detect and/or measure the ability of a compound disclosed herein to protect neuronal and/or glial cells. In some embodiments, mixed hippocampal cell cultures are prepared as described in, e.g., Haughey et al. (1999), J Neurochem, 73(4):1363-1374, and Haughey et al (2004), J Neurosci, 24(1):257-268. Subsequently, the cultures are pretreated for one hour in the presence of a candidate neuroprotective agent and then incubated with a cytotoxic agent for about 18 hours. Examples of cytotoxic agents include, but are not limited to, oxidative stressors (e.g., 3-nitropropionic acid (3-NP) or H2O2),.excitatory amino acids (e.g., kainate), or neurotoxic proteins (e.g., Hiv Tat, or Aβ peptides). […] The level of protection (“percent protection”) provided by the test compound at a given test concentration in vitro can be expressed as: […]
(§1) We evaluate the protective efficacy of a number of antifungal agents against many different neurotoxins, ranging from the chemotoxic 6-OHDA, NMDA, 3-nitropropionic acid (3-NP), and viral proteins such as Tat and gp120. Thus, we provide an in vitro neuroprotection assay using rat mixed hippocampal cultures, in which we evaluate the protective efficacy of neuroprotective compounds described herein. The oxidative stressor 3-NP is used to elicit toxicity in the rat hippocampal cultures to mimic the oxidative damage, reactive oxygen species production and ensuing neurodegeneration resulting from HIV infection. Another measure of neurotoxicity which results from HIV infection is evaluated by exposure of the hippocampal cultures to HIV-1 Tat (Li et al (2005), Neurotox Res, 8(1-2):119-134).
(§2) Rat mixed hippocamal neuronal cultures are generated from freshly dissected rat hippocampi (embryonic day 18) in neurobasal media containing 5% fetal bovine serum and 2% B27 supplement. The cells are plated into 96 well plates at a density of 4×10^5 cells/mL and routinely used on days 11-14 following culturing. Cell viability is assessed with MTT [3-(4,5-dimethylthiazol-2-yl)-2,5-diphenyltetrazolium bromide] assay. The MTT assay is based on the ability of a mitochondrial dehydrogenase enzyme from viable cells to cleave the tetrazolium rings of the pale yellow MTT and form dark blue formazan crystals. See Mosmann (1983), J Immunol Methods, 65(1-2):55-63. These crystals are largely impermeable to cell membranes, and thus accumulate within healthy cells. The resultant formazan precipitates are solubilized with DMSO and read on a multiwell scanning spectrophotometer (ELISA reader). The number of surviving cells is directly proportional to the level of the formazan product created.
(§3) Mixed hippocampal cultures are incubated with 3-NP (0.5-10 mM) for 18 hours in a 0.1% DMSO vehicle and then assessed for viability using an MTT assay.
Neuroprotection vs 3NP is measured as a percentage of neural and/or glial cell that are protected from 3NP induced cell death after incubation with the neuroprotective agent (10 μM) for 60 minutes when compared to a 0.1% DMSO vehicle control.
The neural and glial cells were preincubated with the neuroprotective compound for 1 hour followed by exposure to3 mM of the toxin for 18 hours.

[2] = test system: rat mixed hippocampal cultures; assay: HIV-1 Tat neurotoxicity assay, MTT endpoint; type: cell-based; conditions: for protection of hippocampal cultures from HIV-Tat toxicity (FIG. 5): increasing concentrations, 1 hour preincubation, 500 nM Tat1-72 for 18 hours; for protection from HIV-1 Tat toxicity (positive controls, FIG. 3): 10 μM, 1 hour pretreatment, 500 nM Tat for 18 hours
Excerpt: as §1, §2
The assay system is validated using two neuroprotective agents, GPI 1046 and Resveratrol. […] Cultures are preincubated with GPI 1046 or Resveratrol for one hour prior to an 18 hour exposure to 3 mM 3-NP. […] The same neuroprotective compounds are evaluated for efficacy against HIV-1 Tat protein toxicity using the same 1 hour preincubation protocol.
The neural and glial cells were preincubated with the neuroprotective compound for 1 hour followed by exposure to 500 nM of Tat1-72 for 18 hours.

[3] = test system: Mixed hippocampal cultures; assay: 6-OHDA neurotoxicity assay, MTT endpoint; type: cell-based, rat; conditions: increasing concentrations, 1 h prior to 100 μM 6-OHDA for 18 h
Experimental: (§4) Mixed hippocampal cultures were treated with increasing concentrations of fluconazole (panel A) or voriconazole (panel B), for 1 h prior to exposure to 100 μM 6-hydroxydopamine (6-OHDA) for 18 h. Cell survival was measured following 6-OHDA by MTT assay. Statistical significance was determined by ANOVA with Newman-Keuls pairwise post hoc comparisons. Statistical significance * indicates p<0.05, ** indicates p<0.01; *** indicates p<0.00
as §2, with “The number of surviving cells is directly proportional to the level of the formazan product created.” left out

[4] = test system: Mixed hippocampal cultures; assay: NMDA excitotoxicity assay, MTT endpoint; type: cell-based, rat; conditions: increasing concentrations, 1 h prior to 500 μM NMDA for 18 h
Experimental: as §4, with “500” for “100”, “N-methyl D-aspartate (NMDA)” for “6-hydroxydopamine (6-OHDA)”, “NMDA” for “6-OHDA”, “p<0.001.” for “p<0.00”
as §2, with “The number of surviving cells is directly proportional to the level of the formazan product created.” left out

[5] = test system: Mixed hippocampal cultures; assay: ADP ribose toxicity assay, MTT endpoint; type: cell-based, rat; conditions: increasing concentrations, 24 h prior to 1 mM ADP ribose for 18 h
Experimental: Mixed hippocampal cultures were treated with increasing concentrations of fluconazole (panel A) or voriconazole (panel B), for 24 h prior to exposure to 1 mM ADP ribose for 18 h. Cell survival was measured following ADP ribose by MTT assay. Statistical significance was determined by ANOVA with Newman-Keuls pairwise post hoc comparisons. Statistical significance * indicates p<0.05, ** indicates p<0.01; *** indicates p<0.001.
as §2, with “The number of surviving cells is directly proportional to the level of the formazan product created.” left out

[6] = test system: Human cortical neuronal cultures; assay: 3-NP toxicity assay in human neurons, MTT endpoint; type: cell-based; conditions: increasing concentrations, 1 h prior to 3 mM 3-NP for 18 h
Experimental: (§5) Human cortical neuronal cultures were treated with increasing concentrations of fluconazole for 1 h prior to exposure to 3 mM 3-NP (panel A) or 100 μM 6-OHDA (panel B) for 18 h. Cell survival was measured by MTT assay. Statistical significance was determined by ANOVA with Newman-Keuls pairwise post hoc comparisons. Statistical significance * indicates p<0.05, ** indicates p<0.01; *** indicates p<0.001.
(§6) FIG. 9 illustrates the protection of human neuronal cultures from 3-NP and 6-OHDA with fluconazole (FIGS. 9A-9B, respectively). The neural and glial cells were preincubated with the neuroprotective compound for 1 hour followed by exposure to 3 mM 3-NP or 100 μM 6-OHDA for 18 hours.

[7] = test system: Human cortical neuronal cultures; assay: 6-OHDA toxicity assay in human neurons, MTT endpoint; type: cell-based; conditions: increasing concentrations, 1 h prior to 100 μM 6-OHDA for 18 h
Experimental: as §5, §6

[8] = test system: rat mixed hippocampal cultures; assay: Titration of 3-NP toxicity, MTT endpoint; type: cell-based; conditions: 3 mM 3-NP, 18 hours, compared to 0.1% DMSO vehicle control
Experimental: FIG. 1 presents an illustrative titration of 3-NP toxicity in rat mixed hippocampal cultures. Rat mixed hippocampal cultures, day 11-14 in vitro, were subjected to 18 hour exposure to 3-NP, followed by MTT treatment to quantitate cell viability.
as §2, §3

CCCCCCOc1ccccc1C(N)=O [EXALAMIDE]
Protection vs 3NP [1]: 9.19%

Clc1ccc(COC(Cn2ccnc2)c2ccc(Cl)cc2Cl)c(Cl)c1 (stereo not shown) [miconazole]
protection from oxidative damage elicited by 3-NP (FIG. 4) [1]: protect hippocampal neurons from oxidative damage elicited by 3-NP | protection of hippocampal cultures from HIV-Tat toxicity (FIG. 5) [2]: concentration dependent protection

Cc1cccc(N(C)C(=S)Oc2ccc3ccccc3c2)c1 [TOLNAFTATE, Tolnaftate]
% Protection vs. 3-NP [1]: 66.8% | Protection vs 3NP [1]: 66.83% | protection from oxidative damage elicited by 3-NP (FIG. 4) [1]: protect hippocampal neurons from oxidative damage elicited by 3-NP | protection of hippocampal cultures from HIV-Tat toxicity (FIG. 5) [2]: concentration dependent protection

Fc1ccc(C(c2ccccc2)(c2ccccc2F)n2ccnc2)cc1 (stereo not shown) [FLUTRIMAZOLE]
Protection vs 3NP [1]: 46.85%

Clc1ccc(CSC(Cn2ccnc2)c2ccc(Cl)cc2Cl)cc1 (stereo not shown) [SULCONAZOLE NITRATE, Sulconazole Nitrate]
% Protection vs. 3-NP [1]: 18.21% | Protection vs 3NP [1]: 18.21%

CC(=O)OCC(COC(C)=O)OC(C)=O [TRIACETIN]
Protection vs 3NP [1]: 45.14%

Clc1ccc(COC(Cn2ccnc2)c2ccc(Cl)cc2Cl)c(Cl)c1 (stereo not shown) [MICONAZOLE NITRATE, Miconazole Nitrate]
% Protection vs. 3-NP [1]: 81.6% | Protection vs 3NP [1]: 81.61%

Clc1ccc(COC(Cn2ccnc2)c2ccc(Cl)cc2Cl)cc1 (stereo not shown) [econazole]
protection from oxidative damage elicited by 3-NP (FIG. 4) [1]: protect hippocampal neurons from oxidative damage elicited by 3-NP | protection of hippocampal cultures from HIV-Tat toxicity (FIG. 5) [2]: concentration dependent protection

C[C@@H]1[C@H](O)[C@@H](C)/C=C/C=C/CC/C=C/C=C/C=C/C=C/C(O[C@H]2O[C@H](C)[C@@H](O)[C@H](N)[C@@H]2O)CC2O[C@](O)(CC(O)C(O)CCC(O)CC(O)CC(O)CC(=O)O[C@H]1C)CC(O)C2C(=O)O (stereo partly shown) [NYSTATIN]
Protection vs 3NP [1]: 46.72%

COc1ccc(/C=C/c2cc(O)cc(O[C@@H]3O[C@H](CO)[C@@H](O)[C@H](O)[C@H]3O)c2)cc1O [RHAPONTIN]
Protection vs 3NP [1]: 22.12%

Clc1ccc(COC(Cn2ccnc2)c2ccc(Cl)cc2Cl)cc1 (stereo not shown) [ECONAZOLE NITRATE, Econazole Nitrate]
% Protection vs. 3-NP [1]: 141.2% | Protection vs 3NP [1]: 141.18%

Clc1ccccc1C(c1ccccc1)(c1ccccc1)n1ccnc1 [CLOTRIMAZOLE, Clotrimazole]
% Protection vs. 3-NP [1]: 12.6% | Protection vs 3NP [1]: 12.57% | protection from oxidative damage elicited by 3-NP (FIG. 4) [1]: protect hippocampal neurons from oxidative damage elicited by 3-NP | protection of hippocampal cultures from HIV-Tat toxicity (FIG. 5) [2]: concentration dependent protection

CCC(C)(C)C(=O)C(=O)N1CCC[C@H]1C(=O)OCCCc1cccnc1 [GPI 1046]
protection from oxidative damage elicited by 3-NP (positive controls, FIG. 2) [1]: significantly protected rat neurons from oxidative damage | protection from HIV-1 Tat toxicity (positive controls, FIG. 3) [2]: protected hippocampal neurons from Tat toxicity

C[C@@H](c1ncncc1F)[C@](O)(Cn1cncn1)c1ccc(F)cc1F [voriconazole]
protection from 6-OHDA neurotoxicity (FIG. 7) [3]: protect hippocampal neurons from 6-OHDA neurotoxicity | protection from excitotoxic lesions elicited by NMDA (FIG. 6) [4]: protect hippocampal neurons from excitotoxic lesions elicited by NMDA | protection from oxidative damage elicited by 3-NP (FIG. 4) [1]: protect hippocampal neurons from oxidative damage elicited by 3-NP | protection of hippocampal cultures from HIV-Tat toxicity (FIG. 5) [2]: concentration dependent protection | protection from toxicity elicited by ADP ribose (FIG. 8) [5]: protect hippocampal neurons from toxicity elicited by ADP ribose

CC(=O)N1CCN(c2ccc(OCC3COC(Cn4ccnc4)(c4ccc(Cl)cc4Cl)O3)cc2)CC1 (stereo not shown) [KETOCONAZOLE]
Protection vs 3NP [1]: 20.93%

Oc1ccc(C=Cc2cc(O)cc(O)c2)cc1 [Resveratrol]
protection from oxidative damage elicited by 3-NP (positive controls, FIG. 2) [1]: significantly protected rat neurons from oxidative damage | protection from HIV-1 Tat toxicity (positive controls, FIG. 3) [2]: protected hippocampal neurons from Tat toxicity

OC(Cn1cncn1)(Cn1cncn1)c1ccc(F)cc1F [FLUCONAZOLE, Fluconazole]
protection from 6-OHDA neurotoxicity (FIG. 7) [3]: protect hippocampal neurons from 6-OHDA neurotoxicity | protection from excitotoxic lesions elicited by NMDA (FIG. 6) [4]: protect hippocampal neurons from excitotoxic lesions elicited by NMDA | protection of human cortical neurons from 3-NP toxicity (FIG. 9A) [6]: protects human cortical neurons | % Protection vs. 3-NP [1]: 13.3% | Protection vs 3NP [1]: 13.35% | protection from oxidative damage elicited by 3-NP (FIG. 4) [1]: protect hippocampal neurons from oxidative damage elicited by 3-NP | protection of hippocampal cultures from HIV-Tat toxicity (FIG. 5) [2]: concentration dependent protection | protection from toxicity elicited by ADP ribose (FIG. 8) [5]: protect hippocampal neurons from toxicity elicited by ADP ribose | protection of human cortical neurons from 6-OHDA toxicity (FIG. 9B) [7]: protects human cortical neurons

O=C(O)CC[N+](=O)[O-] [3-NP, 3-nitropropionic acid]
cytotoxicity [8]: 25-35%
